Data reported in ChEMBL document CHEMBL3745645, “Synthesis, in vitro antitumor activity, dihydrofolate reductase inhibition, DNA intercalation and structure-activity relationship studies of 1,3,5-triazine analogues” (Bioorg Med Chem Lett, 2016).
The source made the active and inactive calls. The calls are words filed in the database; no cut-off is given here.

How the values were obtained:
Type in all cases: functional
A549 = experiment: Cytotoxicity against human A549 cells at 10 uM after 48 hrs by SRB assay; conditions: A549, 48 h, read-out: GI
786-0 = experiment: Cytotoxicity against human 786-0 cells at 10 uM after 48 hrs by SRB assay
KM12 = experiment: Cytotoxicity against human KM12 cells at 10 uM after 48 hrs by SRB assay; conditions: KM12, 48 h, read-out: GI
MDA-MB-231 = experiment: Cytotoxicity against human MDA-MB-231 cells at 10 uM after 48 hrs by SRB assay; conditions: MDA-MB-231, 48 h, read-out: GI
U-251 = experiment: Cytotoxicity against human U251 cells at 10 uM after 48 hrs by SRB assay; conditions: U-251, 48 h, read-out: GI
[1] = Cytotoxicity against human HOP62 cells at 10 uM after 48 hrs by SRB assay; conditions: HOP-62, 48 h, read-out: GI
MCF7 = experiment: Cytotoxicity against human MCF7 cells at 10 uM after 48 hrs by SRB assay; conditions: MCF7, 48 h, read-out: GI
HCC 2998 = experiment: Cytotoxicity against human HCC2998 cells at 10 uM after 48 hrs by SRB assay
[2] = Cytotoxicity against human UO31 cells at 10 uM after 48 hrs by SRB assay; conditions: UO-31, 48 h, read-out: GI
[3] = Cytotoxicity against human SNB19 cells at 10 uM after 48 hrs by SRB assay; conditions: SNB-19, 48 h, read-out: GI
A498 = experiment: Cytotoxicity against human A498 cells at 10 uM after 48 hrs by SRB assay; conditions: A498, 48 h, read-out: GI
[4] = Cytotoxicity against human HCT15 cells at 10 uM after 48 hrs by SRB assay; conditions: HCT-15, 48 h, read-out: GI
SK-MEL-5 = experiment: Cytotoxicity against human SK-MEL-5 cells at 10 uM after 48 hrs by SRB assay; conditions: SK-MEL-5, 48 h, read-out: GI
[5] = Cytotoxicity against human SF295 cells at 10 uM after 48 hrs by SRB assay; conditions: SF-295, 48 h, read-out: GI
SR = experiment: Cytotoxicity against human SR cells at 10 uM after 48 hrs by SRB assay; conditions: read-out: GI
NCI-H522 = experiment: Cytotoxicity against human NCI-H522 cells at 10 uM after 48 hrs by SRB assay; conditions: NCI-H522, 48 h, read-out: GI
[6] = Cytotoxicity against human NCI-ADR-RES cells at 10 uM after 48 hrs by SRB assay; conditions: read-out: GI
SW-620 = experiment: Cytotoxicity against human SW620 cells at 10 uM after 48 hrs by SRB assay
K562 = experiment: Cytotoxicity against human K562 cells at 10 uM after 48 hrs by SRB assay; conditions: K562, 48 h, read-out: GI
[7] = Cytotoxicity against human HL-60(TB) cells at 10 uM after 48 hrs by SRB assay; conditions: HL-60, 48 h, read-out: GI
HT-29 = experiment: Cytotoxicity against human HT-29 cells at 10 uM after 48 hrs by SRB assay; conditions: HT-29, 48 h, read-out: GI
[8] = Cytotoxicity against human SF268 cells at 10 uM after 48 hrs by SRB assay; conditions: SF-268, 48 h, read-out: GI
RXF 393 = experiment: Cytotoxicity against human RXF393 cells at 10 uM after 48 hrs by SRB assay
NCI-H322M = experiment: Cytotoxicity against human NCI-H322M cells at 10 uM after 48 hrs by SRB assay; conditions: read-out: GI
CCRF-CEM = experiment: Cytotoxicity against human CCRF-CEM cells at 10 uM after 48 hrs by SRB assay; conditions: read-out: GI
SK-MEL-2 = experiment: Cytotoxicity against human SK-MEL-2 cells at 10 uM after 48 hrs by SRB assay
[9] = Cytotoxicity against human Hs 578T cells at 10 uM after 48 hrs by SRB assay; conditions: read-out: GI
M14 = experiment: Cytotoxicity against human M14 cells at 10 uM after 48 hrs by SRB assay; conditions: M14, 48 h, read-out: GI
[10] = Cytotoxicity against human SNB75 cells at 10 uM after 48 hrs by SRB assay; conditions: SNB-75, 48 h, read-out: GI
ACHN = experiment: Cytotoxicity against human ACHN cells at 10 uM after 48 hrs by SRB assay; conditions: read-out: GI
TK-10 = experiment: Cytotoxicity against human TK10 cells at 10 uM after 48 hrs by SRB assay
CAKI-1 = experiment: Cytotoxicity against human Caki1 cells at 10 uM after 48 hrs by SRB assay
NCI-H226 = experiment: Cytotoxicity against human NCI-H226 cells at 10 uM after 48 hrs by SRB assay; conditions: NCI-H226, 48 h, read-out: GI
[11] = Cytotoxicity against human HOP92 cells at 10 uM after 48 hrs by SRB assay; conditions: HOP-92, 48 h, read-out: GI
SK-MEL-28 = experiment: Cytotoxicity against human SK-MEL-28 cells at 10 uM after 48 hrs by SRB assay
[12] = Cytotoxicity against human IGROV1 cells at 10 uM after 48 hrs by SRB assay; conditions: IGROV-1, 48 h, read-out: GI
[13] = Cytotoxicity against human OVCAR3 cells at 10 uM after 48 hrs by SRB assay; conditions: OVCAR-3, 48 h, read-out: GI
[14] = Cytotoxicity against human HCT116 cells at 10 uM after 48 hrs by SRB assay; conditions: HCT-116, 48 h, read-out: GI
BT-549 = experiment: Cytotoxicity against human BT549 cells at 10 uM after 48 hrs by SRB assay
T47D = experiment: Cytotoxicity against human T47D cells at 10 uM after 48 hrs by SRB assay; conditions: read-out: GI
[15] = Cytotoxicity against human MOLT4 cells at 10 uM after 48 hrs by SRB assay; conditions: MOLT-4, 48 h, read-out: GI
[16] = Cytotoxicity against human COLO205 cells at 10 uM after 48 hrs by SRB assay; conditions: COLO 205, 48 h, read-out: GI
UACC-257 = experiment: Cytotoxicity against human UACC257 cells at 10 uM after 48 hrs by SRB assay
OVCAR-5 = experiment: Cytotoxicity against human OVCAR5 cells at 10 uM after 48 hrs by SRB assay
MDA-MB-435 = experiment: Cytotoxicity against human MDA-MB-435 cells at 10 uM after 48 hrs by SRB assay; conditions: MDA-MB-435, 48 h, read-out: GI
[17] = Cytotoxicity against human SKOV3 cells at 10 uM after 48 hrs by SRB assay; conditions: SK-OV-3, 48 h, read-out: GI
Malme-3M = experiment: Cytotoxicity against human MALME-3M cells at 10 uM after 48 hrs by SRB assay; conditions: read-out: GI
[18] = Cytotoxicity against human DU145 cells at 10 uM after 48 hrs by SRB assay; conditions: DU-145, 48 h, read-out: GI
SF-539 = experiment: Cytotoxicity against human SF539 cells at 10 uM after 48 hrs by SRB assay
MDA-MB-468 = experiment: Cytotoxicity against human MDA-MB-468 cells at 10 uM after 48 hrs by SRB assay
[19] = Cytotoxicity against human OVCAR8 cells at 10 uM after 48 hrs by SRB assay; conditions: OVCAR-8, 48 h, read-out: GI
[20] = Cytotoxicity against human LOXIMVI cells at 10 uM after 48 hrs by SRB assay; conditions: LOX IMVI, read-out: GI
NCI-H460 = experiment: Cytotoxicity against human NCI-H460 cells at 10 uM after 48 hrs by SRB assay; conditions: NCI-H460, 48 h, read-out: GI
[21] = Cytotoxicity against human RPMI8226 cells at 10 uM after 48 hrs by SRB assay; conditions: RPMI-8226, 48 h, read-out: GI
[22] = Cytotoxicity against human OVCAR4 cells at 10 uM after 48 hrs by SRB assay; conditions: OVCAR-4, 48 h, read-out: GI
SN12C = experiment: Cytotoxicity against human SN12C cells at 10 uM after 48 hrs by SRB assay; conditions: read-out: GI

Question: For Cc1nc2cc(Nc3nc(Nc4ccc(F)cc4)nc(Nc4ncccn4)n3)ccc2n1Cc1ccccc1, which inhibition of growth at 10 µM (A549) is on record?
Answer: 17.8%

Question: And the “growth inhibition (GI)” value (786-0)?
Answer: inactive

Question: And the inhibition of growth at 10 µM (KM12)?
Answer: 11.6%

Question: What about the inhibition of growth at 10 µM (MDA-MB-231) of the same compound?
Answer: 7.37%

Question: What about the inhibition of growth at 10 µM (U-251) of the same compound?
Answer: 13.2%

Question: What about the inhibition of growth at 10 µM [1] of the same compound?
Answer: 2.38%

Question: And the inhibition of growth at 10 µM (MCF7)?
Answer: 20.1%

Question: What about the “growth inhibition (GI)” value (HCC 2998) of the same compound?
Answer: inactive

Question: And the inhibition of growth at 10 µM [2]?
Answer: 27%

Question: What about the inhibition of growth at 10 µM [3] of the same compound?
Answer: 7.38%

Question: And the inhibition of growth at 10 µM (A498)?
Answer: 11.5%

Question: What about the inhibition of growth at 10 µM [4] of the same compound?
Answer: 12.7%

Question: What about the inhibition of growth at 10 µM (SK-MEL-5) of the same compound?
Answer: 6.35%

Question: And the inhibition of growth at 10 µM [5]?
Answer: 15.6%

Question: What about the inhibition of growth at 10 µM (SR) of the same compound?
Answer: 51.6%

Question: What about the inhibition of growth at 10 µM (NCI-H522) of the same compound?
Answer: 22.5%

Question: What about the inhibition of growth at 10 µM [6] of the same compound?
Answer: 10.5%

Question: What about the “growth inhibition (GI)” value (SW-620) of the same compound?
Answer: inactive

Question: What about the inhibition of growth at 10 µM (K562) of the same compound?
Answer: 41.3%

Question: What about the inhibition of growth at 10 µM [7] of the same compound?
Answer: 30.1%

Question: And the inhibition of growth at 10 µM (HT-29)?
Answer: 14.8%

Question: What about the inhibition of growth at 10 µM [8] of the same compound?
Answer: 11.2%

Question: What about the “growth inhibition (GI)” value (RXF 393) of the same compound?
Answer: inactive

Question: And the inhibition of growth at 10 µM (NCI-H322M)?
Answer: 5.47%

Question: And the inhibition of growth at 10 µM (CCRF-CEM)?
Answer: 63.2%

Question: What about the “growth inhibition (GI)” value (SK-MEL-2) of the same compound?
Answer: inactive

Question: What about the inhibition of growth at 10 µM [9] of the same compound?
Answer: 20.9%

Question: And the inhibition of growth at 10 µM (M14)?
Answer: 5.65%

Question: And the inhibition of growth at 10 µM [10]?
Answer: 15.6%

Question: What about the inhibition of growth at 10 µM (ACHN) of the same compound?
Answer: 1.6%

Question: And the “growth inhibition (GI)” value (TK-10)?
Answer: inactive

Question: What about the “growth inhibition (GI)” value (CAKI-1) of the same compound?
Answer: inactive

Question: And the inhibition of growth at 10 µM (NCI-H226)?
Answer: 11.5%

Question: What about the inhibition of growth at 10 µM [11] of the same compound?
Answer: 18.4%

Question: What about the “growth inhibition (GI)” value (SK-MEL-28) of the same compound?
Answer: inactive

Question: What about the inhibition of growth at 10 µM [12] of the same compound?
Answer: 24%

Question: What about the inhibition of growth at 10 µM [13] of the same compound?
Answer: 9.64%

Question: And the inhibition of growth at 10 µM [14]?
Answer: 15.8%

Question: And the “growth inhibition (GI)” value (BT-549)?
Answer: inactive

Question: And the inhibition of growth at 10 µM (T47D)?
Answer: 25.1%

Question: And the inhibition of growth at 10 µM [15]?
Answer: 44.6%

Question: And the inhibition of growth at 10 µM [16]?
Answer: 10.5%

Question: And the “growth inhibition (GI)” value (UACC-257)?
Answer: inactive

Question: What about the “growth inhibition (GI)” value (OVCAR-5) of the same compound?
Answer: inactive

Question: And the inhibition of growth at 10 µM (MDA-MB-435)?
Answer: 9.24%

Question: What about the inhibition of growth at 10 µM [17] of the same compound?
Answer: 2.64%

Question: What about the inhibition of growth at 10 µM (Malme-3M) of the same compound?
Answer: 7.94%

Question: What about the inhibition of growth at 10 µM [18] of the same compound?
Answer: 4.12%

Question: And the “growth inhibition (GI)” value (SF-539)?
Answer: inactive

Question: And the “growth inhibition (GI)” value (MDA-MB-468)?
Answer: inactive

Question: What about the inhibition of growth at 10 µM [19] of the same compound?
Answer: 8.83%

Question: And the inhibition of growth at 10 µM [20]?
Answer: 3.01%

Question: And the inhibition of growth at 10 µM (NCI-H460)?
Answer: 5.2%

Question: What about the inhibition of growth at 10 µM [21] of the same compound?
Answer: 57.4%

Question: What about the inhibition of growth at 10 µM [22] of the same compound?
Answer: 20.2%

Question: And the inhibition of growth at 10 µM (SN12C)?
Answer: 8.42%
